Measurements published in patent publication US7651978B2, “Selective herbicides based on a substituted phenylsulphonylaminocarbonyl-triazolinone” (Arysta LifeScience North America, LLC, priority 1998, dated 2010).
Where a name gives a salt, the structure may show the parent alone.

Columns and labels:
Setaria viridis [1] = experiment: Post-emergence tests/outdoors (Example D, Canada and USA); type: in vivo; conditions: outdoors, 28–30 g of a.i./ha + SAS, 70 WP or 70 WG, 102 tests
Procedure: (§1) Post-Emergence Tests/Outdoors The sodium salt of the compound of the formula (I) was tested under outdoor conditions in the main cultivation areas of summer wheat in Canada and the USA against economically important weeds. The small-plot experiments were carried out on cultivated land under agricultural use, with cultivation and climate conditions which can be considered to be representative for the period of the trial. Areas with particularly extensive weed growth were chosen by way of preference. The active compound was applied across the area by the spray method, with an average droplet size. To produce a useful preparation of active compound, the active compound was formulated as 70 WP or 70 WG (70% w/w water-dispersible powder or granules) and applied with customary amounts of water. Wetting of the plants was improved by addition of a surface-active substance (SAS) in the concentration recommended by the manufacturer. To assess the crop compatibility, from 1 to 8 weeks after the treatment, plant growth inhibitions or […] of the leaf area were assessed in % damage in comparison to the development of the untreated control. At different intervals after the treatment, the herbicidal activity was assessed as % reduction in comparison to the untreated control, based on the weed development. The figures denote: • 0%=no damage of the crops or no herbicidal effect, • 100%=total destruction of the crops or the weeds.

Brassica spp. = experiment: as above; type: in vivo; conditions: outdoors, 28–30 g of a.i./ha + SAS, 70 WP or 70 WG, 27 tests
Procedure: as §1

Avena fatua [2] = experiment: as above; type: in vivo; conditions: outdoors, 28–30 g of a.i./ha + SAS, 70 WP or 70 WG, 263 tests
Procedure: as §1

Sinapis arvensis [3] = experiment: as above; type: in vivo; conditions: outdoors, 28–30 g of a.i./ha + SAS, 70 WP or 70 WG, 48 tests
Procedure: as §1

Capsella bursa-pastoris = experiment: as above; type: in vivo; conditions: outdoors, 28–30 g of a.i./ha + SAS, 70 WP or 70 WG, 12 tests
Procedure: as §1

Thlaspi arvense [4] = experiment: as above; type: in vivo; conditions: outdoors, 28–30 g of a.i./ha + SAS, 70 WP or 70 WG, 45 tests
Procedure: as §1

Amaranthus retroflexus = experiment: as above; type: in vivo; conditions: outdoors, 28–30 g of a.i./ha + SAS, 70 WP or 70 WG, 60 tests
Procedure: as §1

wheat [5] = experiment: Post-emergence tests/outdoors (Example C, Canada), crop damage; type: in vivo, summer wheat; conditions: in vivo
Procedure: (§2) Post-Emergence Tests/Outdoors In addition to the comparative compounds (B) and (D), the sodium salt of the compound of the formula (I) was tested under outdoor conditions in the main cultivation areas of summer wheat in Canada against economically important weeds. The small-plot experiments were carried out on cultivated land under agricultural use. Areas with particularly extensive weed growth were chosen preferably. The active compounds were applied across the area by the spray method, with an average droplet size. To produce a useful preparation of active compound, the active compounds were formulated as 70 WP (70% w/w water-dispersible powder) and applied with customary amounts of water. Wetting of the plants was improved by addition of a surface-active substance (SAS) in the concentrations recommended by the respective manufacturer. To assess the crop compatibility, from 1 to 8 weeks after the treatment, plant growth inhibitions or […] of the leaf area were assessed in % damage in comparison to the development of the untreated control. At different intervals after the treatment, the herbicidal activity was assessed as % reduction in comparison to the untreated control, based on the weed development. The figures denote: • 0%=no damage of the crops or no herbicidal effect, • 100%=total destruction of the crops or the weeds.

Setaria viridis [6] = experiment: Post-emergence tests/outdoors (Example C, Canada); type: in vivo; conditions: outdoors, 30 g of a.i./ha + SAS (Canplus 411), 70 WP, 5 tests
Procedure: as §2

Fallopia convolvulus = experiment: Post-emergence tests/outdoors (Example C, Canada); type: in vivo; conditions: outdoors, 30 g of a.i./ha + SAS (Canplus 411), 70 WP, 5 tests
Procedure: as §2

Avena fatua [7] = experiment: Post-emergence tests/outdoors (Example C, Canada); type: in vivo; conditions: outdoors
Procedure: as §2

Sinapis arvensis [8] = experiment: Post-emergence tests/outdoors (Example C, Canada); type: in vivo; conditions: outdoors, 30 g of a.i./ha + SAS (Canplus 411), 70 WP, 5 tests
Procedure: as §2

Thlaspi arvense [9] = experiment: Post-emergence tests/outdoors (Example C, Canada); type: in vivo; conditions: outdoors, 30 g of a.i./ha + SAS (Canplus 411), 70 WP, 3 tests
Procedure: as §2

Avena = experiment: Pre-emergence test/greenhouse; type: in vivo; conditions: 504 h, after three weeks, read-out: degree of damage, Avena
Procedure: (§3) Pre-Emergence Test/Greenhouse Solvent: 5 parts by weight of acetone Emulsifier: 1 part by weight of alkylaryl polyglycol ether To produce a suitable preparation of active compound, 1 part by weight of active compound is mixed with the stated amount of solvent, the stated amount of emulsifier is added and the concentrate is diluted with water to the desired concentration. Seeds of the test plants are sown in normal soil. After about 24 hours, the soil is sprayed with the preparation of active compound such that the particular amount of active compound desired is applied per unit area. The concentration of the spray liquor is chosen so that the particular amount of active compound desired is applied in 500 ml of water per hectare. After three weeks, the degree of damage to the plants is assessed in % damage in comparison to the development of the untreated control. The figures denote: • 0%=no effect (like untreated control) • 100%=total destruction

Wheat [10] = experiment: Pre-emergence test/greenhouse; type: in vivo; conditions: in vivo
Procedure: as §3

Echinochloa = experiment: Pre-emergence test/greenhouse; type: in vivo; conditions: 30 g of ai./ha, after three weeks
Procedure: as §3

Matricaria = experiment: Pre-emergence test/greenhouse; type: in vivo; conditions: 30 g of ai./ha, after three weeks
Procedure: as §3

Bromus = experiment: Pre-emergence test/greenhouse; type: in vivo; conditions: 30 g of ai./ha, after three weeks
Procedure: as §3

Alopecurus = experiment: Pre-emergence test/greenhouse; type: in vivo; conditions: 504 h, after three weeks, read-out: degree of damage, Alopecurus
Procedure: as §3

Digitaria = experiment: Pre-emergence test/greenhouse; type: in vivo; conditions: 30 g of ai./ha, after three weeks
Procedure: as §3

Setaria = experiment: Pre-emergence test/greenhouse; type: in vivo; conditions: after three weeks
Procedure: as §3

Polygonum = experiment: Pre-emergence test/greenhouse; type: in vivo; conditions: 30 g of ai./ha, after three weeks
Procedure: as §3

## COc1nn(C(=O)NS(=O)(=O)c2ccccc2OC(F)(F)F)c(=O)n1C [(I)-Na-salt, 2-(2-trifluoromethoxy-phenylsulphonylaminocarbonyl)-4-methyl-5-methoxy-2,4-dihydro-3H-1,2,4-triazol-3-one]
Setaria viridis [1]
  herbicidal effect (%), Setaria viridis: 94%
Brassica spp.
  herbicidal effect (%), Brassica spp.: 93%
Avena fatua [2]
  herbicidal effect (%), Avena fatua: 90%
Sinapis arvensis [3]
  herbicidal effect (%), Sinapis arvensis: 98%
Capsella bursa-pastoris
  herbicidal effect (%), Capsella bursa-pastoris: 90%
Thlaspi arvense [4]
  herbicidal effect (%), Thlaspi arvense: 97%
Amaranthus retroflexus
  herbicidal effect (%), Amaranthus retroflexus: 90%
Wheat [5]
  crop compatibility compared with comparative compounds (B) and (D), in words: approximately the same compatibility
Setaria viridis [6]
  herbicidal effect (%), Setaria viridis: 94%
Fallopia convolvulus
  herbicidal effect (%), Fallopia convolvulus: 73%
Avena fatua [7]; 30 g of a.i./ha + SAS (Canplus 411), 70 WP, 6 tests
  herbicidal effect (%), Avena fatua: 88%
Avena fatua [7]; post-emergence
  activity against Avena fatua compared with comparative compounds (B) and (D), in words: considerably stronger activity
Sinapis arvensis [8]
  herbicidal effect (%), Sinapis arvensis: 94%
Thlaspi arvense [9]
  herbicidal effect (%), Thlaspi arvense: 93%
Avena; 30 g of ai./ha
  pest or weed control at 30 g/ha: 95%
Avena; 250 g ai./ha
  pest or weed control at 250 g/ha: 99%
Wheat [10]
  compatibility with crop plants (wheat), in words: very good compatibility
Wheat [10]; wheat, 3 weeks
  degree of damage, Wheat: 0%
Echinochloa
  degree of damage, Echinochloa: 80%
Matricaria
  degree of damage, Matricaria: 100%
Bromus
  degree of damage, Bromus: 100%
Alopecurus; 30 g of ai./ha
  pest or weed control at 30 g/ha: 100%
Alopecurus; 250 g ai./ha
  pest or weed control at 250 g/ha: 100%
Digitaria
  degree of damage, Digitaria: 100%
Setaria; 30 g of ai./ha
  degree of damage, Setaria: 100%
Setaria; 250 g ai./ha
  degree of damage, Setaria: 99%
Polygonum
  degree of damage, Polygonum: 90%
